These results are taken from patent US6900200B2, “Tricyclic hydroxy carboxamides and derivatives thereof tocolytic oxytocin receptor antagonists” (Wyeth, priority 2001, dated 2005).

For orientation: inhibition means the relative decrease from the control value, in per cent. The IC50 is the concentration that gives 50% inhibition.

The structures appear in SMILES notation.

One assay has as its target T1, human oxytocin receptor (Homo sapiens, UniProt P30559).
T1 construct: host or cells: CHO cells, pcDNA3.1 vector
T1 sequence (P30559 1-389): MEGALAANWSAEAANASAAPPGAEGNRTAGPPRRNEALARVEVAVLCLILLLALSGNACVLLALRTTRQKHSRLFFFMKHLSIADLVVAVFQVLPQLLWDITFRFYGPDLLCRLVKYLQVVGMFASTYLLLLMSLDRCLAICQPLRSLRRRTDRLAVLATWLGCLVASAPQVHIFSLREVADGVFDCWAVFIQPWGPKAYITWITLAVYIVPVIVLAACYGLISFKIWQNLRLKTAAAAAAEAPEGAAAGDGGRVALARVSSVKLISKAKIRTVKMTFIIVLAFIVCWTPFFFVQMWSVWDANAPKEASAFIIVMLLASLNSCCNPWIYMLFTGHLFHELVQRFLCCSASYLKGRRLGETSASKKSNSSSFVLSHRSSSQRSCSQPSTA
The assay can be described thus: Oxytocin binding in CHO cell membranes expressing human oxytocin receptors ([3H]oxytocin radioligand binding). As to conditions: @ 100 nM, read-out: OT % inhibition @ 100 nM. An excerpt: Oxytocin Binding in Chinese Hamster Ovary Cell Membranes Expressing Human Oxytocin Receptors
Chinese Hamster Ovary (CHO) cells stably transfected with the human oxytocin receptor (cf. Tanizawa et al., U.S. Pat. No. 5,466,584 (1995) to Rohto Pharmaceutical Co. Ltd., Osaka, Japan) were obtained from M. Thibonnier, Case Western Reserve University School of Medicine, Cleveland, Ohio.
A. Passaging and Amplification of Cells
CHO cells transfected with the human oxytocin receptors obtained from M. Thibonnier (pcDNA3.1 vector) are allowed to grow to confluency (approx. >90%) in T-150 flasks under sterile conditions, in a cell culture medium of F-12 Nutrient Mixture (HAM) with L-glutamine (Gibco Cat. #11765-054) containing 15 mM HEPES (Gibco Cat. #15630-080), 1% antibiotic/antimycotic (add 5 mL 100×, Gibco Cat. #15240-062 per 500 mL F-12), 400 μg/mL of Geneticin (add 4 mL of 50 mg/mL per 500 mL F-12) and 10% Fetal Bovine Serum (Qualified, heat inactivated, Gibco Cat. #16140-063). The medium is removed by aspiration and the cells are washed with 10 mL of Hank's Balanced Salt solution (Gibco Cat. #14175-095). The salt solution is removed by aspiration and the cells trypsinized with 5 mL of trypsin-EDTA (0.05% trypsin, 0.53 mM EDTA-4Na, Gibco Cat. #25300-070) for 1 min. The trypsin is removed by aspiration and the cells dislodged by tapping. Cell Culture medium (e.g. 30 mL for 1:30 split) is immediately added and mixed well to inactivate trypsin. 1 mL of detached cells is added to new culture flasks containing fresh Cell Culture medium (e.g. into 25 mL per T-150 flask), and mixed gently. The cells are incubated at 37° C. in 5% CO2. The medium is changed at 3 to 4 days interval (or as appropriate). The cells grow to confluency (approx. >75%-95%) within 7-8 days. All steps are done under sterile conditions.
The cells are washed twice gently with Hank's Balanced Salt solution (e.g., use 10 mL per T-1 50 flask). The excess solution is removed and the cells bathed for 15-30 min. in an enzyme-free Cell Dissociation Buffer (e.g., use 8 mL Hank's Based, Gibco Cat. #13150-016 per T-150 flask) until cells are loosened. The contents are transferred to centrifuge tubes (50 mL size) kept in ice bath. All subsequent steps are done at 4° C. The tubes are centrifuged at 300×g for 15 min (1380 rpm on SORVAL, Model RT6000D, using rotor for 50 mL tubes). The supernatant is discarded and the cells suspended in homogenizing buffer (10 mM Tris-HCl containing 0.25 M sucrose and 1 mM EDTA, pH 7.4) ensuring that the volume of the buffer is about ten times the volume of the cell pellet. The cells are pooled into a centrifuge tube (50 mL) and homogenized with a Polytron at setting 6 for 10 sec. The homogenate is transferred into a Potter-Elvjehm homogenizer and homogenized with 3 strokes. The homogenate is centrifuged at 1500×g for 10 min at 4° C. (3100 rpm using SORVAL, model RT6000D, using rotor for 50 mL tubes). The pellet is discarded. The supernatant is centrifuged at 100,000×g for 60 min. at 4° C. (Beckman L8-80M ultracentrifuge; spin at 37,500 rpm with rotor type 70 Ti for 50 mL tubes; 38,000 rpm with type 80Ti for 15 mL tubes; or 35,800 rpm with rotor type 45Ti). The supernantant is discarded and the pellet suspended in 3 to 4 mL of Tris buffer (50 mM TRIS—HCl, pH 7.4). The protein content is estimated by the Bradford or Lowry method. The volume of the membrane suspension is adjusted with the membrane buffer (50 mM Tris-HCl containing 0.1% BSA and 0.1 mM PMSF) to give 3.0 mg/mL (or as appropriate) of protein. The membranes are aliquoted and stored at −70° C.
C. Radioligand Binding Assay
In wells of a 96-well format microtiter plate, is added 90, 110 or 130 μL (to make up a final volume of 200 μL) of assay buffer containing 50 mM of Tris-HCl (pH 7.4), […], 1 mg % aprotinin, 1 mg % leupeptin, 2 mg % 1,10-phenanthroline, 10 mg % trypsin inhibitor, and 0.1 mM PMSF. […]
Consider `COc1cc2c(cc1OC)N(C(=O)c1ccc(-c3ccccc3C(F)(F)F)c(C)c1)Cc1ccc(C(=O)N(C)CC(O)CO)n1C2` (stereo not drawn) [Example 18, N-(2,3-Dihydroxypropyl)-7,8-dimethoxy-N-methyl-10-{[2-methyl-2′-trifluoromethyl-[1,1′-biphenyl]-4-yl]carbonyl}-10,11-dihydro-5H-pyrrolo[2,1-c][1,4]benzodiazepine-3-carboxamide], for which the inhibition at 0.1 µM worked out at 36%.
For `COc1cc2c(cc1OC)N(C(=O)c1ccc(-c3ccccc3C(F)(F)F)c(C)c1)Cc1ccc(C(=O)N(CCO)CCO)n1C2` [Example 19, N,N-Bis(2-Hydroxyethyl)-7,8-dimethoxy-10-{[2-methyl-2′-trifluoromethyl-[1,1′-biphenyl]-4-yl]carbonyl}-10,11-dihydro-5H-pyrrolo[2,1-c][1,4]benzodiazepine-3-carboxamide], the inhibition at 0.1 µM is 27%.
Still for that read-out and setting: for `O=C(c1ccc2n1Cc1ccccc1N(C(=O)c1ccc(-c3cccc4ccccc34)cc1Cl)C2)N1CCN(CCO)CC1` [Example 25, 2-{4-[10-{[2-Chloro-4-(naphthalen-1-yl)phenyl]carbonyl}-(10,11-dihydro-5H-pyrrolo[2,1-c][1,4]benzodiazepin-3-yl)carbonyl]piperazine-1-yl}-1-hydroxyethane] the value was 20%; for `COc1cc2c(cc1OC)N(C(=O)c1ccc(-c3ccccc3OC)c(C)c1)Cc1ccc(C(=O)N(C)C[C@H](O)[C@@H](O)[C@H](O)[C@H](O)CO)n1C2` [Example 37, 7,8-Dimethoxy-10-[(2′-methoxy-2-methyl-[1,1′-biphenyl]-4-yl)carbonyl]-10,11-dihydro-5H-pyrrolo[2,1-c][1,4]benzodiazepine-3-carboxylic acid methyl-[(2S, 3R, 4R, 5R)-2,3,4,5,6-pentahydroxy-hexyl)-amide], 53%.
On the same count and under the same terms, the figure for `COc1ccccc1-c1ccc(C(=O)N2Cc3ccc(C(=O)N4CCN(CCO)CC4)n3Cc3ccccc32)cc1C` [Example 40, [4-(2-Hydroxyethyl)-1-piperazinyl]{10-[(2′-methoxy-2-methyl[1,1′-biphenyl]-4yl)carbonyl]-10,11-dihydro-5H-pyrrolo[2,1-c][1,4]benzodiazepin-3-yl}methanone] is 93%; for `COc1cc(C(=O)N2Cc3ccc(C(=O)N4CCN(CCO)CC4)n3Cc3ccccc32)ccc1-c1cccc2ccccc12` [Example 41, [4-(2-Hydroxyethyl)-1-piperazinyl]{10-[3-methoxy-4-(1-naphthyl)benzoyl]-10,11-dihydro-5H-pyrrolo[2,1-c][1,4]benzodiazepin-3-yl}methanone] it is 71%.
The same measure, in the same setting: for `COc1cc(C(=O)N2Cc3ccc(C(=O)N4CCN(CCO)CC4)n3Cc3ccccc32)ccc1-c1ccccc1C` [Example 42, [4-(2-Hydroxyethyl)-1-piperazinyl]{10-[(2-methoxy-2′-methyl[1,1′-biphenyl]-4yl)carbonyl]-10,11-dihydro-5H-pyrrolo[2,1-c][1,4]benzodiazepin-3-yl}methanone] the value was 89%.

Staying with this assay, now noted: value printed in parentheses, read-out: OT (IC50).
Turning to `CC(=O)OCC(CN(C)C(=O)c1ccc2n1Cc1ccccc1N(C(=O)c1ccc(-c3ccccc3C(F)(F)F)c(C)c1)C2)OC(C)=O` (stereo not drawn) [Example 13, 2-(Acetyloxy)-1-({methyl[(10-{[2-methyl-2′-trifluoromethyl-[1,1′-biphenyl]-4-yl]carbonyl}-10,11-dihydro-5H-pyrrolo[2,1-c][1,4]benzodiazepin-3-yl)carbonyl]amino}methyl)ethyl acetate], the half-inhibitory concentration (IC50) was 9.16 nM.
Same read-out and setting: for `COc1ccccc1-c1ccc(C(=O)N2Cc3ccc(C(=O)N(C)CC(O)CO)n3Cc3ccccc32)cc1C` (stereo not drawn) [Example 14, 10-[(2′-Methoxy-2-methyl-[1,1′-biphenyl]-4-yl)carbonyl]-10,11-dihydro-5H-pyrrolo[2,1-c][1,4]benzodiazepine-3-carboxylic acid (2,3-dihydroxy-propyl)-methyl-amide] the value was 1.9 nM.
On the same count and under the same terms, for `COc1ccccc1-c1ccc(C(=O)N2Cc3ccc(C(=O)N(C)C[C@H](O)[C@@H](O)[C@H](O)[C@H](O)CO)n3Cc3ccccc32)cc1C` [Example 17, 10-[(2′-Methoxy-2-methyl-[1,1′-biphenyl]-4-yl)carbonyl]-10,11-dihydro-5H-pyrrolo[2,1-c][1,4]benzodiazepine-3-carboxylic acid methyl-[(2S,3R,4R, 5R)-2,3,4,5,6-pentahydroxy-hexyl)-amide] the value was 1.03 nM; for `COc1cc(-c2ccccc2C(F)(F)F)c(Cl)cc1C(=O)N1Cc2ccc(C(=O)N(C)C[C@H](O)[C@@H](O)[C@H](O)[C@H](O)CO)n2Cc2ccccc21` [Example 20, 10-{[6-Chloro-3-methoxy-2′-trifluoromethyl-[1,1′-biphenyl]-4-yl]carbonyl}-N-methyl-N-[(2S,3R,4R,5R)-2,3,4,5,6-pentahydroxyhexyl]-10,11-dihydro-5H-pyrrolo[2,1-c][1,4]benzodiazepine-3-carboxamide], 1.09 nM.
On the same count and under the same terms, the figure for `COc1cc(C(=O)N2Cc3ccc(C(=O)N(C)CC(O)CO)n3Cc3ccccc32)ccc1-c1ccccc1C(F)(F)F` (stereo not drawn) [Example 21, N-(2,3-Dihydroxypropyl)-10-{[2-methoxy-2′-trifluoromethyl-[1,1′-biphenyl]-4-yl]carbonyl}-N-methyl-10,11-dihydro-5H-pyrrolo[2,1-c][1,4]benzodiazepine-3-carboxamide] is 1.73 nM; for `COc1cc(C(=O)N2Cc3ccc(C(=O)N(C)CC(O)CN(C)C)n3Cc3ccccc32)ccc1-c1ccccc1C(F)(F)F` (stereo not drawn) [Example 22, N-[(3-Dimethylamino)-2-hydroxy-propyl]-10-{[2-methoxy-2′-trifluoromethyl-[1,1′-biphenyl]-4-yl]carbonyl}-N-methyl-10,11-dihydro-5H-pyrrolo[2,1-c][1,4]benzodiazepine-3-carboxamide] it is 1.47 nM.
Consider `Cc1ccc(-c2ccc(C(=O)N3Cc4ccc(C(=O)N(C)CC(O)CO)n4Cc4ccccc43)cc2)c2ccccc12` (stereo not drawn) [Example 26, 10-{[4-(4-Methyl-naphthalen-1-yl)phenyl]carbonyl}-10,11-dihydro-5H-pyrrolo[2,1-c][1,4]benzodiazepine-3-carboxylic acid (2,3-dihydroxy-propyl)-N-methylamide], for which the IC50 amounted to 55.8 nM.
On the same count and under the same terms, the figure for `COc1cc(-c2ccccc2C)c(Cl)cc1C(=O)N1Cc2ccc(C(=O)N3CCN(CCO)CC3)n2Cc2ccccc21` [Example 39, {10-[(6-Chloro-3-methoxy-2′-methyl[1,1′-biphenyl]-4-yl)carbonyl]-10,11-dihydro-5H-pyrrolo[2,1-c][1,4]benzodiazepin-3-yl}[4-(2-hydroxyethyl)-1-piperazinyl]methanone] is 3 nM.
